# From US6656925B2, “Composition and method of treating arthritis” (Advanced Medical Instruments, priority 1998, dated 2003)
# Key:
# [1] = absorbed by the gastrointestinal tract, significant first-pass metabolism in the liver; cited from earlier work
# osteoarthritis symptoms = settings: cited from earlier work
# weakness of hind legs = assay: Case report: 12 year old Weimaraner with weakness of hind legs (Example 3); format: in vivo, dog (Weimaraner); settings: prednisone 20 mg per day
# Experimental: A 12 year old Weimaraner developed weakness of his hind legs which limited his ability to jump and lift his leg to urinate. […] He was then started on the new composition, of the invention, comprising zinc acetate 20 mg and glucosamine sulfate 500 mg coated with polyvinylpirrolidone 7 mg taken twice a day. […] He was then maintained on glucosamine sulfate 500 mg and zinc acetate 10 mg, twice a day for 11 months until his death.
# [2] = most common adverse effect of zinc therapy; cited from earlier work
smiles,measurement,setting,value
N[C@H]1C(O)O[C@H](CO)[C@@H](O)[C@@H]1O (some centres unmarked) [Glucosamine],bioavailibility,[1],26%
N[C@H]1C(O)O[C@H](CO)[C@@H](O)[C@@H]1O.O=S(=O)(O)O (some centres unmarked) [glucosamine sulfate],persistence of clinical improvement after discontinuation,osteoarthritis symptoms; after discontinuation,up to four weeks
same,onset of clinical improvement of symptoms,osteoarthritis symptoms; after oral administration,as early as one week
C[C@]12C=CC(=O)C=C1CC[C@@H]1[C@@H]2C(=O)C[C@@]2(C)[C@H]1CC[C@]2(O)C(=O)CO [prednisone],response of hind leg weakness,weakness of hind legs,limited success
[Zn] [zinc],"gastrointestinal irritation, share of patients",[2],approximately 10 % of patients
